These results are taken from patent US9604982B2, “P2X7 modulators” (Janssen Pharmaceutica NV, priority 2013, dated 2017).

Where two headings read alike, the source gives them in different places.

For assay [1], the target named is T1, P2X7 (Homo sapiens (Human), UniProt Q99572). Nature of the assay: Radioligand binding, human P2X7-1321N1 cell membranes, tracer tritiated A-804598. As to conditions: Table 3 (additional runs). The procedure:
(§1) P2X7 Antagonism in Recombinant Human P2X7 Cells or Recombinant Rat P2X7 Cells: (a) Ca^2+ Flux and (b) Radioligand Binding
On the day of the experiment, cell membrane preparations were made according to standard published methods. […] The compound can be prepared as described in the literature. […] The assay was terminated by filtration (GF/B filters pre-soaked with 0.3% PEI) and washed with washing buffer (Tris-HCl 50 mM). The IC50 generated in the binding assay was corrected for tracer concentration and affinity of the tracer to derive at the affinity (K) of the test compounds. […] Data are analyzed and graphed on Graphpad Prism 5.

For assay [2], the target named is T1, P2X7. Nature of the assay: P2X7 antagonism in human peripheral blood mononuclear cells (PBMCs), IL-1β release after LPS + Bz-ATP (ELISA). Type of assay: cell-based. As to conditions: 0.5 mM Bz-ATP; for remaining activity at 10 µM: read-out: PBMC 10 μM (% control); for PBMC 10 μM (% control): Table 3 (additional runs). On the procedure: Human blood was collected using a blood donor program. […] Cells were incubated for an additional 1.5 hours. […] Data are analyzed and graphed on Graphpad Prism 5. […] The IC50 for each compound is then uploaded into 3DX.
(In general: In an ELISA, binding on a coated surface is turned into a signal by an enzyme label.)

Assay [3] has as its target T1, P2X7. Nature of the assay: Ca2+ flux (FLIPR) in 1321N1 cells expressing recombinant human P2X7 channel. Format: cell-based. The settings on record: Table 3 (additional runs); 250 μM BzATP. The procedure:
as §1
(§2) (a) Ca^2+ flux: 1321N1 cells expressing the recombinant human or rat P2X7 channel was cultured in HyQ DME/(HyClone/Dulbecco's Modified Eagle Medium) high glucose supplemented with 10% Fetal Bovine Serum (FBS) and appropriate selection marker. Cells were seeded at a density of 25000 cells/well (96-well clear bottom black walled plates) in 100 μl volume/well. On the day of the experiment, cell plates were washed with assay buffer, containing (in mM): 130 NaCl, 2 KCl, 1 CaCl2, 1 MgCl2, 10 HEPES, 5 glucose; pH 7.40 and 300 mOs. After the wash, cells were loaded with the Calcium-4 dye (Molecular Device) and incubated in the dark for 60 minutes. Test compounds were prepared at 250× the test concentration in neat DMSO. Intermediate 96-well compound plates were prepared by transferring 1.2 μL of the compound into 300 μL of assay buffer. A further 3× dilution occurred when transferring 50 μL/well of the compound plate to 100 μL/well in the cell plate. Cells were incubated with test compounds and dye for 30 minutes. […] The fluorescence change was measured 180 seconds after adding the agonist.
In general terms: Calcium assays in cells follow changes in intracellular calcium, usually with a dye or a luminescent sensor.

Assay [4] concerns the target recombinant rat P2X7 channel (Rattus norvegicus (Rat), UniProt Q64663). Nature of the assay: Ca2+ flux (FLIPR) in 1321N1 cells expressing recombinant rat P2X7 channel. Type of assay: cell-based. As to conditions: Table 3 (additional runs); 250 μM BzATP. The procedure: as §1, §2
[5] abbreviates: P2X7, Table 3 (additional runs), 10 μM compound.

T1 sequence (Q99572 whole entry): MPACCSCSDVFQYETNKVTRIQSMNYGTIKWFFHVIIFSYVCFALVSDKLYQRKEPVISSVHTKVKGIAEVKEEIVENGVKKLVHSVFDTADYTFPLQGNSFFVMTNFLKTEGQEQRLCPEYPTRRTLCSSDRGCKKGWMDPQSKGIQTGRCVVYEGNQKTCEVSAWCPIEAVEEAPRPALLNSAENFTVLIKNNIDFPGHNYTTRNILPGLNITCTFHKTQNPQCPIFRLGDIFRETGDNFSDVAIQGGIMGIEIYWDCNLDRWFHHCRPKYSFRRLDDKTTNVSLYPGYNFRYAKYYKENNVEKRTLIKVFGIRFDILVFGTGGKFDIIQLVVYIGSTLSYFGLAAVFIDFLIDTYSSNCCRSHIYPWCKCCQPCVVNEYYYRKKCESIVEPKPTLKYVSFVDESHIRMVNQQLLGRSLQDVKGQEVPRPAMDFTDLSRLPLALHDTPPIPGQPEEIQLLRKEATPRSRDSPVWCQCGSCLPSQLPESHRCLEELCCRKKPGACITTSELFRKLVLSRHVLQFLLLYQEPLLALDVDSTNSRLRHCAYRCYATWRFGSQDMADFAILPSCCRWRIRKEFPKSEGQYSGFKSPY
Sequence of recombinant rat P2X7 channel (Q64663 whole entry): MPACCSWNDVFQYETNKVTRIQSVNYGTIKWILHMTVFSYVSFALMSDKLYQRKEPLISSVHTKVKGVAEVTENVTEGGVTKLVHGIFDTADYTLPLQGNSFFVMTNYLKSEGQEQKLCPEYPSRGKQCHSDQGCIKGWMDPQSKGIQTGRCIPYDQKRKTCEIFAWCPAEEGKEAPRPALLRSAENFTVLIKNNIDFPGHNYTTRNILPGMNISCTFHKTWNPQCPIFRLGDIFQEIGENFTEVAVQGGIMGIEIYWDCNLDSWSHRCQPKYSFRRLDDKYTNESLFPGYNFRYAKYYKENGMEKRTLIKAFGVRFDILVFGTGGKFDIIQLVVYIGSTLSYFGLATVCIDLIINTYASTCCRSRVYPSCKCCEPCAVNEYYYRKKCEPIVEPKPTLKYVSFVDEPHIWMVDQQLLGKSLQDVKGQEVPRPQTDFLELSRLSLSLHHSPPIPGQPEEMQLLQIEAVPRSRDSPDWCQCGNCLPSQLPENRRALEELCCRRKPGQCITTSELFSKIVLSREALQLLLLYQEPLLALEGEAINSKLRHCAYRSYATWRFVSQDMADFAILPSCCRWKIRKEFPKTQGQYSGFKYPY

As usually defined, the Ki is the equilibrium dissociation constant of an inhibitor or competing ligand from its target. High values mean lower affinity, low ones higher affinity. Turning to `Cc1nc2c(c(-c3ccn[nH]3)n1)C[C@H](C)N(C(=O)c1ccc(Cl)cc1F)C2` (single isomer, unassigned) [Example 89, (S*)-(4-chloro-2-fluorophenyl)(2,6-dimethyl-4-(1H-pyrazol-5-yl)-5,6-dihydropyrido[3,4-d]pyrimidin-7(8H)-yl)methanone], the inhibition constant Ki on P2X7 [1] is 0.0077 µM.

Take `COCCn1ccc(-c2nc(C)nc3c2C[C@H](C)N(C(=O)c2cccc(C(F)(F)F)c2Cl)C3)n1` (single isomer, unassigned) [Example 127, (S*)-(2-chloro-3-(trifluoromethyl)phenyl)(4-(1-(2-methoxyethyl)-1H-pyrazol-3-yl)-2,6-dimethyl-5,6-dihydropyrido[3,4-d]pyrimidin-7(8H)-yl)methanone]: on P2X7 [2] (P2X7, Table 2, 10 μM compound), the remaining activity at 10 µM came out at 38.2%.

For the molecule `COCCn1ccc(-c2nc(C)nc3c2C[C@@H](C)N(C(=O)c2cccc(C(F)(F)F)c2Cl)C3)n1` (single isomer, unassigned) [Example 128, (R*)-(2-chloro-3-(trifluoromethyl)phenyl)(4-(1-(2-methoxyethyl)-1H-pyrazol-3-yl)-2,6-dimethyl-5,6-dihydropyrido[3,4-d]pyrimidin-7(8H)-yl)methanone], at P2X7 [2] (P2X7, Table 2, 10 μM compound), the remaining activity at 10 µM worked out at 7.3%. For the same molecule, the “PBMC 10 μM (% control)” value on P2X7 [2] (10 μM compound) was 7.3 % control.

For orientation: IC50 means the concentration that gives 50% inhibition. As to `Cc1nc2c(c(-c3ccn[nH]3)n1)C[C@@H](C)N(C(=O)c1cccc(OC(F)(F)F)c1)C2` (single isomer, unassigned) [Example 141, (R*)-(2,6-dimethyl-4-(1H-pyrazol-5-yl)-5,6-dihydropyrido[3,4-d]pyrimidin-7(8H)-yl)(3-(trifluoromethoxy)phenyl)methanone], the half-inhibitory concentration (IC50) worked out at 9 µM on P2X7 [3] and 12.4 µM in assay [4].

As to `Cc1nc2c(c(-c3ccn[nH]3)n1)C[C@H](C)N(C(=O)c1cccc(OC(F)(F)F)c1)C2` (single isomer, unassigned) [Example 142, (S*)-(2,6-dimethyl-4-(1H-pyrazol-5-yl)-5,6-dihydropyrido[3,4-d]pyrimidin-7(8H)-yl)(3-(trifluoromethoxy)phenyl)methanone], the remaining activity at 10 µM on P2X7 [2] (setting [5]) came out at 73.9%.

In the case of `Cc1nc2c(c(-c3ccn[nH]3)n1)C[C@@H](C)N(C(=O)c1cccc(F)c1Cl)C2` (single isomer, unassigned) [Example 144, (R*)-(2-chloro-3-fluorophenyl)(2,6-dimethyl-4-(1H-pyrazol-5-yl)-5,6-dihydropyrido[3,4-d]pyrimidin-7(8H)-yl)methanone], in assay [4], the 50% inhibitory concentration (IC50) was found to be 0.2 µM.

On to `Cc1nc2c(c(-c3ccn[nH]3)n1)C[C@H](C)N(C(=O)c1cccc(F)c1Cl)C2` (single isomer, unassigned) [Example 145, (S*)-(2-chloro-3-fluorophenyl)(2,6-dimethyl-4-(1H-pyrazol-5-yl)-5,6-dihydropyrido[3,4-d]pyrimidin-7(8H)-yl)methanone], for which the remaining activity at 10 µM on P2X7 [2] (setting [5]) is 67.4%.

As to `Cc1nc2c(c(-c3ccn[nH]3)n1)C[C@@H](C)N(C(=O)c1ccc(Cl)c(F)c1Cl)C2` [Example 71, (R)-(2,4-dichloro-3-fluorophenyl)(2,6-dimethyl-4-(1H-pyrazol-5-yl)-5,6-dihydropyrido[3,4-d]pyrimidin-7(8H)-yl)methanone], the remaining activity at 10 µM at P2X7 [2] (P2X7, Table 2, 10 μM compound) was -4.1%. Also, the “PBMC 10 μM (% control)” value at P2X7 [2] (10 μM compound) was −4.1 % control.

Consider `Cc1nc2c(c(-c3ccn[nH]3)n1)C[C@H](C)N(C(=O)c1ccc(Cl)c(F)c1Cl)C2` [Example 72, (S)-(2,4-dichloro-3-fluorophenyl)(2,6-dimethyl-4-(1H-pyrazol-5-yl)-5,6-dihydropyrido[3,4-d]pyrimidin-7(8H)-yl)methanone], for which the remaining activity at 10 µM on P2X7 [2] (P2X7, Table 2, 10 μM compound) is -2.6%. At P2X7 [2] (10 μM compound), the “PBMC 10 μM (% control)” value is on record as −2.6 % control.

On to `Cc1nc2c(c(-c3ccn[nH]3)n1)CC(C)N(C(=O)c1cccc(OC(F)(F)F)c1F)C2` (stereo not drawn) [Example 139, (2,6-dimethyl-4-(1H-pyrazol-5-yl)-5,6-dihydropyrido[3,4-d]pyrimidin-7(8H)-yl)(2-fluoro-3-(trifluoromethoxy)phenyl)methanone], for which the remaining activity at 10 µM on P2X7 [2] (setting [5]) was found to be 2%. Further, the half-maximal inhibitory concentration (IC50) in assay [4] amounted to 1.46 µM.

Consider `Cc1nc2c(c(-c3ccn[nH]3)n1)CC(C)N(C(=O)c1cccc(OC(F)(F)F)c1)C2` (stereo not drawn) [Example 140, (2,6-dimethyl-4-(1H-pyrazol-5-yl)-5,6-dihydropyrido[3,4-d]pyrimidin-7(8H)-yl)(3-(trifluoromethoxy)phenyl)methanone], for which the remaining activity at 10 µM at P2X7 [2] (setting [5]) was determined as 52.5%. Moreover, the half-maximal inhibitory concentration (IC50) was > 10 µM on P2X7 [3] and 47.3 µM in assay [4].

With `Cc1nc2c(c(-c3ccn[nH]3)n1)CC(C)N(C(=O)c1cccc(F)c1Cl)C2` (stereo not drawn) [Example 143, (2-chloro-3-fluorophenyl)(2,6-dimethyl-4-(1H-pyrazol-5-yl)-5,6-dihydropyrido[3,4-d]pyrimidin-7(8H)-yl)methanone], the remaining activity at 10 µM on P2X7 [2] (setting [5]) turned out to be 11.9%. The IC50 in assay [4] was found to be 0.0522 µM.

Regarding `COc1cccc(C(=O)N2Cc3nc(C)nc(-c4ccn[nH]4)c3CC2C)c1C` (stereo not drawn) [Example 146, (2,6-dimethyl-4-(1H-pyrazol-5-yl)-5,6-dihydropyrido[3,4-d]pyrimidin-7(8H)-yl)(3-methoxy-2-methylphenyl)methanone], at P2X7 [2] (setting [5]), the remaining activity at 10 µM is -0.8%. For the same molecule, the IC50 is 1.06 µM on P2X7 [3] and > 10 µM in assay [4].

As to `COc1cncc(C(=O)N2Cc3nc(C)nc(-c4ccn[nH]4)c3CC2C)c1` (stereo not drawn) [Example 147, (2,6-dimethyl-4-(1H-pyrazol-5-yl)-5,6-dihydropyrido[3,4-d]pyrimidin-7(8H)-yl)(5-methoxypyridin-3-yl)methanone], the remaining activity at 10 µM on P2X7 [2] (setting [5]) was 110%.
